{"source": "patent US5861375A", "about": "“Antiprotozoal cyclic tetrapeptides” (Merck & Co., Inc., priority 1997, dated 1999)", "test_system": "Plasmodium falciparum", "assay": "Radioactive antimalarial assay (parasite specific uptake of radiolabel)", "type": "cell-based", "conditions": "P. falciparum", "description": "Compound of formula Ia was evaluated against Eimeria tenella, Toxoplasma gondii, and Plasmodium falciparum according to methods reported in the literature.\nThe antimalarial activity was determined in a radioactive assay following the general protocol described in Desjardins et al, \"Quantitative Assessment of Antimalarial Activity In Vitro by a Semiautomated Microdilution Technique\" Antimicrobial Agents and Chemotherapy. 1979, 16:710-718."}
{"compound": "CCC(=O)CCCCC[C@@H]1NC(=O)[C@H]2CCCCN2C(=O)[C@H]([C@@H](C)CC)NC(=O)[C@H](Cc2cn(OC)c3ccccc23)NC1=O", "note": "[Ia]", "values": [{"measurement": "IC50 (the concentration of drug which inhibits the parasite specific uptake of radiolabel by 50%)", "result": 0.054, "unit": "µg/mL"}]}
